Reference: ChEMBL document CHEMBL2062419, “Synthesis and antiviral activities of hexadecyloxypropyl prodrugs of acyclic nucleoside phosphonates containing guanine or hypoxanthine and a (S)-HPMP or PEE acyclic moiety” (Eur J Med Chem, 2012)
Active and inactive are the calls of the source. No cut-off for these calls is given here.

Assays:
[1] = tested on: Human immunodeficiency virus 2; test: Antiviral activity against HIV2 ROD infected in human CEM cells assessed as reduction in virus-induced CEM giant cell formation incubated for 4 days at 37 degC by microscopy; format: functional, organism-based; settings: ISOLATE ROD, CCRF-CEM
[2] = Selectivity index, ratio of cytotoxic CC50 for HEL cells to EC50 for VZV YS
[3] = Cytotoxicity against HEL cells assessed as effect on cell morphology incubated for 3 days by microscopy; format: cell-based; settings: human
Human alphaherpesvirus 3 [4] = test: Antiviral activity against thymidine kinase positive VZV YS infected in HEL cells by plaque formation assay; format: functional, organism-based; settings: Human alphaherpesvirus 3, YS
Sindbis virus = test: Antiviral activity against Sindbis virus by viral CPE assay; format: functional, organism-based
[5] = tested on: Human immunodeficiency virus 1; test: Antiviral activity against HIV1 3B infected in human CEM cells assessed as reduction in virus-induced CEM giant cell formation incubated for 4 days at 37 degC by microscopy; format: functional, organism-based; settings: CCRF-CEM
[6] = tested on: Respiratory syncytial virus; test: Antiviral activity against Respiratory syncytial virus Long by viral CPE assay; format: functional, organism-based
Human alphaherpesvirus 2 = test: Antiviral activity against HSV2 G infected in HEL cells by viral CPE assay; format: functional, organism-based; settings: Human alphaherpesvirus 2, strain G
[7] = Selectivity index, ratio of cytotoxic CC50 for HEL cells to EC50 for VZV Oka
[8] = Selectivity index, ratio of cytotoxic CC50 for HEL cells to EC50 for Vaccinia virus Lederie; format: toxicity, cell-based; settings: human, read-out: Ratio CC50/EC50
Human respirovirus 3 = test: Antiviral activity against Human parainfluenza virus 3 by viral CPE assay; format: functional, organism-based
[9] = Selectivity index, ratio of cytotoxic CC50 for HEL cells to EC50 for HCMV AD169
[10] = tested on: Vesicular stomatitis virus; test: Antiviral activity against VSV by viral CPE assay; format: functional, organism-based
[11] = Selectivity index, ratio of cytotoxic CC50 for HEL cells to EC50 for HCMV Davis
Human alphaherpesvirus 3 [12] = test: Antiviral activity against thymidine kinase positive VZV OKa infected in HEL cells by plaque formation assay; format: functional, cell-based, Human herpesvirus 3 strain Oka vaccine; settings: Human alphaherpesvirus 3, OKa
Human alphaherpesvirus 1 [13] = test: Antiviral activity against HSV1 KOS infected in HEL cells by viral CPE assay; format: functional, organism-based; settings: Human alphaherpesvirus 1, KOS
[14] = Selectivity index, ratio of cytotoxic CC50 for HEL cells to EC50 for HSV2 G
Felid alphaherpesvirus 1 = test: Antiviral activity against Feline herpesvirus infected in CRFK cells by viral CPE assay; format: functional, organism-based; settings: Felid alphaherpesvirus 1, CRFK
Human betaherpesvirus 5 [15] = test: Antiviral activity against HCMV AD169 infected in HEL cells by viral CPE assay; format: functional, organism-based; settings: Human betaherpesvirus 5, AD169, HEL
Vaccinia virus = test: Antiviral activity against Vaccinia virus Lederie infected in HEL cells by viral CPE assay; format: functional, organism-based; settings: Orthopoxvirus vaccinia
[16] = Selectivity index, ratio of cytotoxic CC50 for HEL cells to EC50 for HSV1 KOS
[17] = Selectivity index, ratio of cytotoxic CC50 for HEL cells to EC50 for VZV 07/01
Human alphaherpesvirus 3 [18] = test: Antiviral activity against thymidine kinase negative VZV 07/01 infected in HEL cells by plaque formation assay; format: functional, organism-based; settings: Human alphaherpesvirus 3, 07/01, HEL
Human alphaherpesvirus 1 [19] = test: Antiviral activity against thymidine kinase negative and ACV resistant HSV1 KOS infected in HEL cells by viral CPE assay; format: functional, organism-based; settings: Human alphaherpesvirus 1, KOS
HEL = test: Cytotoxicity against HEL cells assessed as effect on cell growth incubated for 3 days by Coulter counter assay; format: cell-based; settings: human, 72 h
Punta Toro virus = test: Antiviral activity against Punta Toro virus by viral CPE assay; format: functional, organism-based
[20] = tested on: Mammalian orthoreovirus 1; test: Antiviral activity against Reovirus 1 by viral CPE assay; format: functional, organism-based
[21] = Selectivity index, ratio of cytotoxic CC50 for HEL cells to EC50 for ACV resistant HSV1 KOS
Coxsackievirus B4 = test: Antiviral activity against Human coxsackievirus B4 by viral CPE assay; format: functional, organism-based
Human betaherpesvirus 5 [22] = test: Antiviral activity against HCMV Davis infected in HEL cells by viral CPE assay; format: functional, organism-based; settings: Human betaherpesvirus 5, Davis
[23] = Selectivity index, ratio of cytotoxic CC50 for HEL cells to EC50 for Feline herpesvirus; format: toxicity, cell-based; settings: human, read-out: Ratio CC50/EC50
[24] = Selectivity index, ratio of cytotoxic CC50 for HEL cells to EC50 for VZV YS/R
Human alphaherpesvirus 3 [25] = test: Antiviral activity against thymidine kinase negative VZV YS/R infected in HEL cells by plaque formation assay; format: functional, organism-based; settings: Human alphaherpesvirus 3, YS/R

| SMILES | Activity [1] | Ratio CC50/EC50 [2] | MCC at 72 h [3] [µM] | EC50 (Human alphaherpesvirus 3 [4]) [nM] | Activity (Sindbis virus) | Activity [5] | Activity [6] | EC50 (Human alphaherpesvirus 2) [nM] | Ratio CC50/EC50 [7] | selectivity ratio [8] | Activity (Human respirovirus 3) | Ratio CC50/EC50 [9] | Activity [10] | Ratio CC50/EC50 [11] | EC50 (Human alphaherpesvirus 3 [12]) [nM] | EC50 (Human alphaherpesvirus 1 [13]) [nM] | Ratio CC50/EC50 [14] | EC50 (Human alphaherpesvirus 3 [18]) [nM] | EC50 (Human alphaherpesvirus 1 [19]) [nM] | CC50 (HEL) [nM] | other results |
| --- | --- | --- | --- | --- | --- | --- | --- | --- | --- | --- | --- | --- | --- | --- | --- | --- | --- | --- | --- | --- | --- |
| CCCCCCCCCCCCCCCCOCCCOP(=O)(O)CO[C@H](CO)Cn1cnc2c(=O)[nH]c(N)nc21 | inactive | 288 | ≥ 1.3 | 2.5 | inactive | inactive | inactive | 7 | 360 | 65 | inactive | 109 | inactive | 327 | 2 | 8 | 103 | 1.7 | 12 | 720 | EC50 (Felid alphaherpesvirus 1): > 1330 nM; EC50 (Human betaherpesvirus 5 [15]): 6.6 nM; EC50 (Vaccinia virus): 11 nM; Ratio CC50/EC50 [16]: 90; Ratio CC50/EC50 [17]: 423; Activity (Punta Toro virus): inactive; Activity [20]: inactive; Ratio CC50/EC50 [21]: 60; Activity (Coxsackievirus B4): inactive; EC50 (Human betaherpesvirus 5 [22]): 2.2 nM |
| CCCCCCCCCCCCCCCCOCCCOP1(=O)CO[C@@H](Cn2cnc3c(=O)[nH]c(N)nc32)CO1 (mixture of isomers) | inactive | 19000 | ≥ 171 | 1 | inactive | inactive | inactive | 80 | 2700 | 146 | inactive | 3800 | inactive | 9500 | 7 | 34 | 238 | 5 | 90 | 19000 | selectivity ratio [23]: 398; Ratio CC50/EC50 [24]: 3800; EC50 (Human alphaherpesvirus 3 [25]): 5 nM; EC50 (Felid alphaherpesvirus 1): 430 nM; EC50 (Human betaherpesvirus 5 [15]): 5 nM; EC50 (Vaccinia virus): 130 nM; Ratio CC50/EC50 [16]: 559; Ratio CC50/EC50 [17]: 3800; Activity (Punta Toro virus): inactive; Activity [20]: inactive; Ratio CC50/EC50 [21]: 211; Activity (Coxsackievirus B4): inactive; EC50 (Human betaherpesvirus 5 [22]): 2 nM |
| CCCCCCCCCCCCCCCCOCCCOP(=O)(O)CCOCCn1cnc2c(=O)[nH]c(N)nc21 | inactive | 137 | ≥ 34 | 190 | inactive | inactive | inactive | 1900 | 186 | < 1 | inactive | 200 | inactive | 433 | 140 | 1370 | 14 | 300 | 2800 | 26000 | EC50 (Felid alphaherpesvirus 1): > 171000 nM; EC50 (Human betaherpesvirus 5 [15]): 130 nM; EC50 (Vaccinia virus): ≥ 34000 nM; Ratio CC50/EC50 [16]: 19; Ratio CC50/EC50 [17]: 87; Activity (Punta Toro virus): inactive; Activity [20]: inactive; Ratio CC50/EC50 [21]: 9; Activity (Coxsackievirus B4): inactive; EC50 (Human betaherpesvirus 5 [22]): 60 nM |
| O=c1[nH]c(=O)n([C@H]2C[C@H](O)[C@@H](CO)O2)cc1/C=C/Br [BRIVUDINE] | – | – | > 300 | 6 | – | – | – | 105000 | – | – | – | – | – | – | – | 38 | – | 53000 | ≥ 183000 | 347000 | EC50 (Human alphaherpesvirus 3 [25]): ≥ 120000 nM |
